Test system: mice
Assay: Testing for analgesia using the tail flick test on mice
Type: in vivo, NMRI mice
Conditions: Mus musculus, 20 min; NMRI mice, intravenous, 20 minutes after administration; Litchfield and Wilcoxon; read-out: ED50 (tail flick test, analgesia)
Source text: Testing for analgesia using the tail flick test on mice
The analgesic effectiveness of the compounds according to the invention was investigated in the thermal radiation (tail flick) test on mice using the method of D'Amour and Smith (J. Pharm. Exp. Ther. 72, 74-79 (1941). […]. The animals were placed in a special test cage and the bases of their tails were exposed to the focused thermal radiation from an electric lamp (Rhema Analgesiemeter Type 3010). The lamp intensity was adjusted so that the time from switching on the lamp until the sudden twitching away of the tail (latency of pain) was 3-5 seconds for untreated animals. Before the administration of a compound according to the invention, the animals were pre-tested twice within five minutes and the average value of these measurements was calculated as the pre-test average. The pain measurement was made 20, 40 and 60 minutes after intravenous administration. […]. In order to determine the dosage-dependency, the respective compound according to the invention was applied in doses increasing logarithmically by a factor of 3-5, which included the threshold and the maximum effective dose each time. The ED50 values were determined from the number of analgesic animals by the method of Litchfield and Wilcoxon (J. Pharm. Exp. Ther. 96, 99-113, (1949)). Calculation of the ED50 was made at the effective maximum 20 minutes after intraveneous adminstration of the substance.

SMILES | ED50 [mg/kg]
COc1cccc([C@@]2(O)C[C@H](O)CC[C@@H]2CN(C)C)c1.Cl (racemic) [(17), (1RS,3RS,6RS)-6-dimethylaminomethyl-1-(3-methoxy-phenyl)-cyclohexane-1,3-diol hydrochloride] | 5.54
CN(C)C[C@H]1CCCC[C@]1(F)c1cccc(O)c1.Cl [(+1), (+)-(1R,2R)-3-(2-dimethylaminomethyl-1-fluoro-cyclohexyl)-phenol hydrochloride] | 0.64
CN(C)C[C@H]1CCCC[C@]1(Cl)c1cccc(O)c1.Cl [(+5), (+)-(1R,2R)-3-(1-chloro-2-dimethylaminomethyl-cyclohexyl)-phenol hydrochloride] | 2.78
COc1cccc([C@@H]2CCCC[C@@H]2CN(C)C)c1.Cl [(+6), (+)-(1S,2R)-[2-(3-methoxy-phenyl)-cyclohexylmethyl]-dimethylamine hydrochloride] | 10.7
CN(C)C[C@@H]1CCCC[C@@H]1c1cccc(O)c1.Cl [(+7), (+)-(1S,2R)-3-(2-dimethylaminomethyl-cyclohexyl)-phenol hydrochloride] | 1.13
COc1cccc([C@@]2(O)C[C@H](O)CC[C@@H]2CN(C)C)c1.Cl [(+17), (+)-(1R,3R,6R)-6dimethylaminomethyl-1-(3-methoxy-phenyl)-cyclohexane-1,3-diol hydrochloride] | 3.93
CN(C)C[C@H]1CC[C@@H](O)C[C@]1(O)c1cccc(O)c1.Cl [(+21), (+)-(1R,3R,6R)-6-dimethylaminomethyl-1-(3-hydroxy-phenyl)-cyclohexane-1,3-diol hydrochloride] | 7.34
CN(C)C[C@@H]1CCCC[C@@]1(F)c1cccc(O)c1.Cl [(-1), (-)-(1S,2S)-3-(2-dimethylaminomethyl-1-fluoro-cyclohexyl)-phenol hydrochloride] | 2.28
CN(C)C[C@H]1CCCC[C@H]1c1cccc(O)c1.Cl [(-7), (-)-(1R,2S)-3-(2-dimethylaminomethyl-cyclohexyl)-phenol hydrochloride] | 5.9
CN(C)C[C@H]1CCCC[C@H]1c1cccc(OC(=O)C(C)(C)C)c1.Cl [(-8), (-)-(1R,2S)-2,2-dimethylpropionic acid-3-(2-dimethylaminomethyl-cyclohexyl)-phenyl ester hydrochloride] | 4.61
CC(=O)Oc1ccccc1C(=O)Oc1cccc([C@@H]2CCCC[C@@H]2CN(C)C)c1.Cl [(-10), (-)-(1R,2S)-2-acetoxy-benzoic acid-3-(2-dimethylaminomethyl-cyclohexyl)-phenyl ester hydrochloride] | 8.71
CC(C)COC(=O)Oc1cccc([C@@H]2CCCC[C@@H]2CN(C)C)c1.Cl [(-11), (-)-(1R,2S)-carbonic acid-[3-(2-dimethylaminomethyl-cyclohexyl)-phenyl]-ester-isobutyl ester hydrochloride] | 5.01

Same assay, conditions: Mus musculus, iv, 20 min, read-out: ED50 (tail flick test, analgesia)

SMILES | ED50 [mg/kg]
COc1cccc([C@@]2(O)CCCC[C@@H]2CN(C)C)c1.Cl (racemic) [Tramadol, (1RS,2RS)-2[(dimethylamino)methyl]-1-(3-methoxyphenyl)cyclohexanol hydrochloride, reference compound] | 13.6
